From US6608082B1, “Treatment of erectile dysfunction using isoquinoline compound melanocortin receptor ligands” (Lion Bioscience AG, priority 1998, dated 2003) come the findings set out here.

Where two headings read alike, the source gives them in different places.

One test deals with T1, MCR-4 (Homo sapiens, UniProt P32245).
T1 construct: expressed in transfected cells; host or cells: HEK 293
Put plainly: Melanocortin receptor binding assay, competition with 125I-HP 467, HEK 293 cells expressing hMCR-4. The settings on record: read-out: MC-4 IC50. An outline of the steps:
(§1)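 Intact-cell competition binding, 2.5 hr at 37 °C, in PBS/10% calf serum/1 mM CaCl2; hMCR-4 cells at 4×10^3 per tube, hMCR-1 cells at 2×10^4 per tube. Filtration on BSA/CaCl2-soaked GF/B, cold 50 mM Tris pH 7.4 washes, scintillation count.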

The target of the next test is T2, MCR-1 (Homo sapiens, UniProt Q01726).
T2 construct: expressed in transfected cells; host or cells: HEK 293
Nature of the test: Melanocortin receptor binding assay, competition with 125I-HP 467, HEK 293 cells expressing hMCR-1. The note with it: for IC50: read-out: MC-1 IC50. Put shortly: as §1

Setting [1] is: competition with 125I-HP 467, HEK 293 cells expressing MCR-4.
Where [2] appears, read: competition with 125I-HP 467, HEK 293 cells expressing MCR-1.
The mark [3] stands for this setting: inhibition of binding of 125I-HP 467, HEK 293 cells expressing MCR-4.
The mark [4] stands for this setting: inhibition of binding of 125I-HP 467, HEK 293 cells expressing MCR-1.

T1 sequence (P32245 whole entry): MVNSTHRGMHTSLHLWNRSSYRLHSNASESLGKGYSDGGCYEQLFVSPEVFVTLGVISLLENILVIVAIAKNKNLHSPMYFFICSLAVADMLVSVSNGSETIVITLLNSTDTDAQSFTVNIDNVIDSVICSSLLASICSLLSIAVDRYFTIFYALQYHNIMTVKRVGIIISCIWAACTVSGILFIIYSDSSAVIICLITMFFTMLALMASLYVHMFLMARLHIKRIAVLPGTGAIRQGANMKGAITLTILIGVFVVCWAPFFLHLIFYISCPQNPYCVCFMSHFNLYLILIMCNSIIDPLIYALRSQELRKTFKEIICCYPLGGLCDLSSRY
T2 sequence (Q01726 whole entry): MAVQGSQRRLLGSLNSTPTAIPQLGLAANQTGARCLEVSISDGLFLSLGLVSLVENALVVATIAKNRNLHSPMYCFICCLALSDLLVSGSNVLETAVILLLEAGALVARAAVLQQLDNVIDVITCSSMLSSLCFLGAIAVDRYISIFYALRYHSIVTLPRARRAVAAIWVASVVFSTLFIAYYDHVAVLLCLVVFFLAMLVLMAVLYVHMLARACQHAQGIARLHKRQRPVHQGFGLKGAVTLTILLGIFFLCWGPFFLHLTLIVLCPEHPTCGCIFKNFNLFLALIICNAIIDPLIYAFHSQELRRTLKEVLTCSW

For the compound `CCNc1ccc(C2C(CNC3CCCCC3)c3ccccc3CN2CCCC[C@@H](CN)NCCC2CCCCC2)cc1` (stereo partly shown) [TRG 2411-58], the IC50 was found to be 1110 nM on MCR-4 (setting [1]) and 220 nM on MCR-1 (setting [2]).
For `CCNc1ccc(C2C(CN)c3ccccc3CN2CCCCC(CN)NCCc2ccccc2)cc1` (stereo not shown) [TRG 2411-63], in that order: 1820 nM and 240 nM.
For `CCCCNc1ccc(C2C(CNCCc3ccccc3)c3ccccc3CN2CCCCC(CN)NCC)cc1` (stereo not shown) [TRG 2411-74], in that order: 2240 nM and 110 nM.
Taken in the same sequence, the figures for `CCCCNc1ccc(C2C(CNCCc3ccccc3)c3ccccc3CN2CCCCC(CN)NCCCC)cc1` (stereo not shown) [TRG 2411-75] were 1050 nM and 130 nM.
For `CCCCNc1ccc(C2C(CNCCc3ccccc3)c3ccccc3CN2CCCCC(CN)NCCc2ccccc2)cc1` (stereo not shown) [TRG 2411-77], the IC50 was 1490 nM on MCR-4 (setting [1]) and 220 nM at MCR-1 (setting [2]).
Taken in the same sequence, the figures for `CCCCNc1ccc(C2C(CNCCc3ccccc3)c3ccccc3CN2CCCCC(CN)NCCc2ccc(Br)cc2)cc1` (stereo not shown) [TRG 2411-78] were 1320 nM and 450 nM.
Taken in the same sequence, the figures for `CCCCNc1ccc(C2C(CNCCc3ccccc3)c3ccccc3CN2CCCCC(CN)NCc2ccccc2)cc1` (stereo not shown) [TRG 2411-80] were 1830 nM and 170 nM.
Taken in the same sequence, the figures for `CCCCNc1ccc(C2C(CNCCc3ccccc3)c3ccccc3CN2CCCCC(CN)NCc2ccc(Cl)cc2)cc1` (stereo not shown) [TRG 2411-81] were 1380 nM and 180 nM.
As to `CCCCNc1ccc(C2C(CNCCc3ccccc3)c3ccccc3CN2CCCCC(CN)NCc2ccc(OC)cc2)cc1` (stereo not shown) [TRG 2411-82], the half-maximal inhibitory concentration (IC50) on MCR-4 (setting [1]) was 1460 nM; at MCR-1 (setting [2]), 290 nM.
In the case of `CCCCNc1ccc(C2C(CNCCc3ccccc3)c3ccccc3CN2CCCCC(CN)NCCc2ccc3ccccc3c2)cc1` (stereo not shown) [TRG 2411-83], the IC50 was 1060 nM at MCR-4 (setting [1]) and 570 nM at MCR-1 (setting [2]).
For `CCCCNc1ccc(C2C(CNCCc3ccccc3)c3ccccc3CN2CCCCC(CN)NCCC2CCCCC2)cc1` (stereo not shown) [TRG 2411-84], in that order: 760 nM and 220 nM.
Taken in the same sequence, the figures for `CCCCNc1ccc(C2C(CNC3CCCCC3)c3ccccc3CN2CCCCC(CN)NCCCC)cc1` (stereo not shown) [TRG 2411-88] were 1500 nM and 240 nM.
Taken in the same sequence, the figures for `CCCCNc1ccc(C2C(CNC3CCCCC3)c3ccccc3CN2CCCCC(CN)NCCc2ccccc2)cc1` (stereo not shown) [TRG 2411-90] were 1170 nM and 250 nM.
Regarding `CCCCNc1ccc(C2C(CNC3CCCCC3)c3ccccc3CN2CCCCC(CN)NCc2ccc(Cl)cc2)cc1` (stereo not shown) [TRG 2411-94], the half-inhibitory concentration (IC50) was 1710 nM on MCR-4 (setting [1]) and 90 nM on MCR-1 (setting [2]).
For `CCCCNc1ccc(C2C(CNC3CCCCC3)c3ccccc3CN2CCCCC(CN)NCc2ccc(OC)cc2)cc1` (stereo not shown) [TRG 2411-95], in that order: 1030 nM and 110 nM.
Taken in the same sequence, the figures for `CCCCNc1ccc(C2C(CNC3CCCCC3)c3ccccc3CN2CCCCC(CN)NCCc2ccc3ccccc3c2)cc1` (stereo not shown) [TRG 2411-96] were 1650 nM and 600 nM.
For `CCCCNc1ccc(C2C(CN)c3ccccc3CN2CCCCC(CN)NCCCC)cc1` (stereo not shown) [TRG 2411-102], in that order: 1170 nM and 90 nM.
For `CCCCNc1ccc(C2C(CN)c3ccccc3CN2CCCCC(CN)NCCc2ccccc2)cc1` (stereo not shown) [TRG 2411-104], the IC50 at MCR-4 (setting [1]) was 590 nM; on MCR-1 (setting [2]), 160 nM.
Taken in the same sequence, the figures for `CCCCNc1ccc(C2C(CN)c3ccccc3CN2CCCCC(CN)NCCc2ccc(Br)cc2)cc1` (stereo not shown) [TRG 2411-105] were 910 nM and 210 nM.
Taken in the same sequence, the figures for `CCCCNc1ccc(C2C(CN)c3ccccc3CN2CCCCC(CN)NCc2ccc(OC)cc2)cc1` (stereo not shown) [TRG 2411-109] were 1400 nM and 100 nM.
Consider `CCCCNc1ccc(C2C(CN)c3ccccc3CN2CCCCC(CN)NCCc2ccc3ccccc3c2)cc1` (stereo not shown) [TRG 2411-110], for which the results for the concentration for half-maximal inhibition (IC50) on MCR-4 (setting [1]) and on MCR-1 (setting [2]) were 1050 nM and 100 nM, respectively.
As for `CCCCNc1ccc(C2C(CN)c3ccccc3CN2CCCCC(CN)NCCC2CCCCC2)cc1` (stereo not shown) [TRG 2411-111], the results for the IC50 at MCR-4 (setting [1]) and at MCR-1 (setting [2]) were 1470 nM and 40 nM, respectively. For the same compound, the “effectiveness as MC receptor ligand” value at MCR-1 (binding to MC receptors, Table 1) is reported as “particularly effective MC receptor ligands”.
As to `CCCCNc1ccc(C2C(CN)c3ccccc3CN2CCCCC(CN)NCCN)cc1` (stereo not shown) [TRG 2411-112], the results for the IC50 on MCR-4 (setting [1]) and at MCR-1 (setting [2]) were 1450 nM and 200 nM, respectively.
On to `CCNC(CN)CCCN1Cc2ccccc2C(CNCCc2ccccc2)C1c1ccc(-c2ccccc2)cc1` (stereo not shown) [TRG 2411-115], for which the IC50 at MCR-4 (setting [1]) came out at 1430 nM; at MCR-1 (setting [2]), 820 nM.
Taken in the same sequence, the figures for `NCC(CCCN1Cc2ccccc2C(CNCCc2ccccc2)C1c1ccc(-c2ccccc2)cc1)NCCc1ccccc1` (stereo not shown) [TRG 2411-116] were 1980 nM and 1240 nM.
For `NCC(CCCN1Cc2ccccc2C(CNCCc2ccccc2)C1c1ccc(-c2ccccc2)cc1)NCc1ccccc1` (stereo not shown) [TRG 2411-126], in that order: 1490 nM and 1320 nM.
For the compound `CCCCNC(CN)CCCN1Cc2ccccc2C(CNC2CCCCC2)C1c1ccc(-c2ccccc2)cc1` (stereo not shown) [TRG 2411-133], the IC50 is 1590 nM at MCR-4 (setting [1]) and 1460 nM on MCR-1 (setting [2]).
On to `COCCNC(CN)CCCN1Cc2ccccc2C(CN)C1c1ccc(-c2ccccc2)cc1` (stereo not shown) [TRG 2411-146], for which the 50% inhibitory concentration (IC50) at MCR-4 (setting [1]) worked out at 1460 nM; on MCR-1 (setting [2]) it was 1220 nM.
For `CCCCNC(CN)CCCN1Cc2ccccc2C(CN)C1c1ccc(-c2ccccc2)cc1` (stereo not shown) [TRG 2411-147], in that order: 1190 nM and 1260 nM.
For `NCC(CCCN1Cc2ccccc2C(CN)C1c1ccc(-c2ccccc2)cc1)NCC1CCCCC1` (stereo not shown) [TRG 2411-148], in that order: 1960 nM and 960 nM.
With `NCC(CCCN1Cc2ccccc2C(CN)C1c1ccc(-c2ccccc2)cc1)NCc1ccccc1` (stereo not shown) [TRG 2411-149], the concentration for half-maximal inhibition (IC50) on MCR-4 (setting [1]) came out at 490 nM; on MCR-1 (setting [2]) it was 1170 nM.
In the case of `CCNc1ccc(C2C(CNCCc3ccccc3)c3ccccc3CN2CCCC(N)CN)cc1` (stereo not shown) [TRG 2411-150], the results for the half-inhibitory concentration (IC50) at MCR-4 (setting [3]) and at MCR-1 (setting [4]) were 4540 nM and 120 nM, respectively.
For `CCNc1ccc(C2C(CNCCc3ccccc3)c3ccccc3CN2CCCC(CN)NC)cc1` (stereo not shown) [TRG 2411-151], in that order: 1780 nM and 90 nM.
For `CCNc1ccc(C2C(CNCCc3ccccc3)c3ccccc3CN2CCCC(CN)NCC)cc1` (stereo not shown) [TRG 2411-152], in that order: 520 nM and 60 nM.
For `CCCCNC(CN)CCCN1Cc2ccccc2C(CNCCc2ccccc2)C1c1ccc(NCC)cc1` (stereo not shown) [TRG 2411-153], in that order: 590 nM and 80 nM.
Consider `CCNc1ccc(C2C(CNCCc3ccccc3)c3ccccc3CN2CCCC(CN)NCCc2ccccc2)cc1` (stereo not shown) [TRG 2411-155], for which the IC50 at MCR-4 (setting [3]) turned out to be 720 nM; at MCR-1 (setting [4]), 90 nM.
Taken in the same sequence, the figures for `CCNc1ccc(C2C(CNCCc3ccccc3)c3ccccc3CN2CCCC(CN)NCCc2ccc(Br)cc2)cc1` (stereo not shown) [TRG 2411-156] were 660 nM and 120 nM.
Taken in the same sequence, the figures for `CCNc1ccc(C2C(CNCCc3ccccc3)c3ccccc3CN2CCCC(CN)NCCc2ccc(OC)cc2)cc1` (stereo not shown) [TRG 2411-157] were 670 nM and 110 nM.
As for `CCNc1ccc(C2C(CNCCc3ccccc3)c3ccccc3CN2CCCC(CN)NCc2ccccc2)cc1` (stereo not shown) [TRG 2411-158], the IC50 at MCR-4 (setting [3]) came out at 410 nM; at MCR-1 (setting [4]), 100 nM.
